We go through 19 compounds from ChEMBL document CHEMBL3091350, “Synthesis and evaluation of the antimalarial, anticancer, and caspase 3 activities of tetraoxane dimers” (Bioorg Med Chem, 2013).

Data set [1] relates to Plasmodium berghei. As to the kind of experiment: Antimalarial activity against Plasmodium berghei ANKA infected in mouse assessed as inhibition of parasitemia at 30 mg/kg, po administered for 3 days post-infection measured on day 4 by Giemsa staining relative to control. The class given is functional.
The test system of data set [2] is Plasmodium berghei. In words: Antimalarial activity against Plasmodium berghei ANKA infected in mouse assessed as inhibition of parasitemia at 3 mg/kg, po administered for 3 days post-infection measured on day 4 by Giemsa staining relative to control. The class given is functional.
The next data set deals with KB. As to the kind of experiment: Cytotoxicity against human KB cells assessed as cell viability after 24 hrs by MTT assay. Type of data set: functional, cell-based.
Data set [3] can be described thus: Therapeutic index, ratio of IC50 for human KB cells to IC50 for chloroquine-resistant Plasmodium falciparum K1. Type of data set: cell-based. Particulars: read-out: Ratio IC50.
Data set [4] has as its system Plasmodium falciparum. As to the kind of experiment: Antimalarial activity against chloroquine-resistant Plasmodium falciparum K1 assessed as parasite growth inhibition after 48 hrs by SYBR green-1 dye-based fluorescence assay. Type of data set: functional, organism-based. The conditions noted are these: K1, 48 h.
For data set [5], the system named is Plasmodium falciparum. As to the kind of experiment: Antimalarial activity against chloroquine-sensitive Plasmodium falciparum 3D7 assessed as parasite growth inhibition after 48 hrs by SYBR green-1 dye-based fluorescence assay. Type of data set: functional, organism-based. Particulars: 3D7, 48 h.
Data set [6] concerns Plasmodium berghei. As to the kind of experiment: Antimalarial activity against Plasmodium berghei ANKA infected in mouse assessed as inhibition of parasitemia at 1 mg/kg, po administered for 3 days post-infection measured on day 4 by Giemsa staining relative to control. Type of data set: functional.
Data set [7] deals with Plasmodium berghei. In words: Antimalarial activity against Plasmodium berghei ANKA infected in po dosed mouse assessed as inhibition of parasitemia administered for 3 days post-infection measured on day 4 by Giemsa staining. The class given is functional.
Data set [8] relates to Plasmodium berghei. In words: Antimalarial activity against Plasmodium berghei ANKA infected in mouse assessed as inhibition of parasitemia at 10 mg/kg, po administered for 3 days post-infection measured on day 4 by Giemsa staining relative to control. Type of data set: functional.
For data set [9], the system named is HL-60. In words: Induction of apoptosis in human HL60 cells assessed as activation of caspase-3 activity at 10.1 to 30.3 uM after 24 hrs by flow cytometric analysis. The class given is functional, cell-based.
Data set [10] in a line: Cytotoxicity against human HT29-AK cells assessed as cell viability after 24 hrs by MTT assay. Type of data set: functional, cell-based.
The subject of data set [11] is HL-60. In words: Cytotoxicity against human HL60 cells assessed as cell viability after 24 hrs by MTT assay. Particulars: HL-60, 24 h. The class given is functional, cell-based.
Data set [12] concerns HL-60. In words: Induction of apoptosis in human HL60 cells assessed as activation of caspase-3 activity at 9.4 to 28.2 uM after 24 hrs by flow cytometric analysis. Type of data set: functional, cell-based.
In data set [13] the test system is HL-60. In words: Induction of apoptosis in human HL60 cells assessed as activation of caspase-3 activity at 0.2 to 0.6 uM after 24 hrs by flow cytometric analysis. The class given is functional, cell-based.
Data set [14] concerns Plasmodium falciparum. As to the kind of experiment: Antimalarial activity against chloroquine-sensitive Plasmodium falciparum 3D7. Type of data set: functional, organism-based.

The source made the active and inactive calls. The rule behind the calls is not given here.

Consider `CC1(CCC(=O)NCCCN2CCN(CCCNC(=O)CCC3(C)OOC4(CCCCC4)OO3)CC2)OOC2(CCCCC2)OO1` (stereo unspecified), for which, in the data set on Plasmodium berghei [1], the inhibition in vivo at 30 mg/kg came to 33.2%. Also, the inhibition in vivo at 3 mg/kg with Plasmodium berghei [2] was found to be 22.3%. Besides, the IC50 in the data set on KB came out at 25 µM; in the data set with Plasmodium falciparum [4], 612 nM; in the data set on Plasmodium falciparum [5], 47.5 nM. For the same compound, the selectivity ratio in data set [3] was 40.8. The inhibition in vivo at 1 mg/kg with Plasmodium berghei [6] amounted to 2.1%. For the same compound, the ED50 in the data set on Plasmodium berghei [7] is > 30 mg/kg. Also, the inhibition in vivo at 10 mg/kg in the data set on Plasmodium berghei [8] came to 21.4%.
On to `O=C(CC1CCC2(CC1)OOC1(OO2)C2CC3CC(C2)CC1C3)NCCCNC(=O)CC1CCC2(CC1)OOC1(OO2)C2CC3CC(C2)CC1C3` (stereo unspecified), for which the IC50 came to 62.1 µM with KB; 24.6 nM with Plasmodium falciparum [4]; 4.7 nM in the data set on Plasmodium falciparum [5]; 22.9 µM in data set [10]; 20.2 µM with HL-60 [11]. Further, in the data set with HL-60 [9], the outcome was Active. The selectivity ratio in [3] was found to be 2530.
Regarding `O=C(CC1CCC2(CC1)OOC1(OO2)C2CC3CC(C2)CC1C3)NCc1cccc(CNC(=O)CC2CCC3(CC2)OOC2(OO3)C3CC4CC(C3)CC2C4)c1` (stereo unspecified), the IC50 came out at 4 nM with Plasmodium falciparum [5], 90.2 µM in data set [10] and 18.8 µM with HL-60 [11]. The result with HL-60 [12] was Active.
As for `O=C(CC1CCC2(CC1)OOC1(OO2)C2CC3CC(C2)CC1C3)Nc1ccc(NC(=O)CC2CCC3(CC2)OOC2(OO3)C3CC4CC(C3)CC2C4)cc1` (stereo unspecified), the figures for the IC50 (in the data set on Plasmodium falciparum [5]; in data set [10]; in the data set on HL-60 [11]) were 58.4 nM, 77.6 µM and > 100 µM, respectively.
`CC1(CCC(=O)NCc2cccc(CNC(=O)CCC3(C)OOC4(CCCCC4)OO3)c2)OOC2(CCCCC2)OO1` (stereo unspecified): the IC50 stood at 63.1 µM in the data set on KB; 136 nM in the data set on Plasmodium falciparum [4]; 416 nM in the data set with Plasmodium falciparum [5]; 32.8 µM in data set [10]; 34.3 µM with HL-60 [11]. In addition, the selectivity ratio in data set [3] is 452.
On to `O=C(CC1CCC2(CC1)OOC1(CCCCC1)OO2)NCCCN1CCN(CCCNC(=O)CC2CCC3(CC2)OOC2(CCCCC2)OO3)CC1`, for which the inhibition in vivo at 30 mg/kg in the data set on Plasmodium berghei [1] is 63.9%. For the same compound, the inhibition in vivo at 3 mg/kg with Plasmodium berghei [2] was 46.1%. In the data set on Plasmodium falciparum [5], the IC50 turned out to be 47.1 nM. Besides, the inhibition in vivo at 1 mg/kg with Plasmodium berghei [6] stood at 29.9%. Moreover, the ED50 in the data set on Plasmodium berghei [7] came to 6.4 mg/kg. Further, in the data set with Plasmodium berghei [8], the inhibition in vivo at 10 mg/kg was 54.3%.
`COc1cc([C@@H]2c3cc4c(cc3[C@H](O)[C@H]3COC(=O)[C@H]23)OCO4)cc(OC)c1OC` [PODOFILOX]: in the data set on KB, the IC50 was found to be 0.0117 µM.
As to `O=C(CC1CCC2(CC1)OOC1(OO2)C2CC3CC(C2)CC1C3)NCCCN1CCN(CCCNC(=O)CC2CCC3(CC2)OOC2(OO3)C3CC4CC(C3)CC2C4)CC1` (stereo unspecified), in the data set on Plasmodium berghei [1], the inhibition in vivo at 30 mg/kg was found to be 64.5%. Further, the inhibition in vivo at 3 mg/kg with Plasmodium berghei [2] was 43.2%. Also, the IC50 in the data set with Plasmodium falciparum [5] came out at 3.5 nM. Moreover, the inhibition in vivo at 1 mg/kg with Plasmodium berghei [6] was found to be 36.1%. Further, the ED50 with Plasmodium berghei [7] was 7.7 mg/kg. For the same compound, the inhibition in vivo at 10 mg/kg with Plasmodium berghei [8] was 46.2%.
For the compound `O=C(CC1CCC2(CC1)OOC1(CCCCC1)OO2)NCCCNC(=O)CC1CCC2(CC1)OOC1(CCCCC1)OO2`, in the data set with Plasmodium falciparum [5], the IC50 stood at 21.3 nM.
`O=C(CC1CCC2(CC1)OOC1(CCCCC1)OO2)NCc1cccc(CNC(=O)CC2CCC3(CC2)OOC2(CCCCC2)OO3)c1`: in the data set on Plasmodium falciparum [5], the IC50 was determined as 38.6 nM.
Take `O=C(CC1CCC2(CC1)OOC1(OO2)C2CC3CC(C2)CC1C3)NCCCCNC(=O)CC1CCC2(CC1)OOC1(OO2)C2CC3CC(C2)CC1C3` (stereo unspecified): in the data set with Plasmodium berghei [1], the inhibition in vivo at 30 mg/kg was 54.8%. In the data set on Plasmodium berghei [2], the inhibition in vivo at 3 mg/kg stood at 27.5%. Besides, the IC50 with KB came to 5.04 µM; in the data set on Plasmodium falciparum [4], 2.7 nM; in the data set on Plasmodium falciparum [5], 11.2 nM. In addition, the selectivity ratio in [3] was found to be 1870. Besides, the inhibition in vivo at 1 mg/kg in the data set with Plasmodium berghei [6] was determined as 22.1%. Further, the ED50 in the data set on Plasmodium berghei [7] was 16.1 mg/kg. The inhibition in vivo at 10 mg/kg in the data set with Plasmodium berghei [8] amounted to 49.6%.
Consider `O=C(CC1CCC2(CC1)OOC1(OO2)C2CC3CC(C2)CC1C3)Nc1cccc(NC(=O)CC2CCC3(CC2)OOC2(OO3)C3CC4CC(C3)CC2C4)c1` (stereo unspecified), for which the IC50 with KB is 134 µM; in the data set with Plasmodium falciparum [4], 102 nM; with Plasmodium falciparum [5], 57.2 nM; in data set [10] it was 92.5 µM; in the data set on HL-60 [11], > 100 µM. In data set [3], the selectivity ratio stood at 1320.
Regarding `O=C(CC1CCC2(CC1)OOC1(CCCCC1)OO2)NCCCCNC(=O)CC1CCC2(CC1)OOC1(CCCCC1)OO2`, the IC50 with Plasmodium falciparum [5] was 28.9 nM.
As for `C[C@H]1[C@@H](O)O[C@@H]2O[C@@]3(C)CC[C@H]4[C@H](C)CC[C@@H]1[C@@]24OO3` [ARTENIMOL], the figures for the IC50 (with Plasmodium falciparum [5]; in data set [10]; with HL-60 [11]) were 3.5 nM, 66.1 µM and 0.4 µM, respectively. Further, the outcome in the data set on HL-60 [13] was Active.
In the data set on Plasmodium falciparum [14], `CN1CCN(C2CCN(C(=O)CC3CCC4(CC3)OOC3(OO4)C4CC5CC(C4)CC3C5)CC2)CC1` (stereo unspecified) had an IC50 of 0.9 nM.
As to `CCN(CC)CCCC(C)Nc1ccnc2cc(Cl)ccc12` (stereo unspecified) [CHLOROQUINE], the IC50 with KB came out at 97.7 µM.
As to `C[C@H]1[C@H](OC(=O)CCC(=O)O)O[C@@H]2O[C@@]3(C)CC[C@H]4[C@H](C)CC[C@@H]1[C@@]24OO3` [ARTESUNATE], the inhibition in vivo at 30 mg/kg in the data set with Plasmodium berghei [1] stood at 99.7%. Also, in the data set on Plasmodium berghei [2], the inhibition in vivo at 3 mg/kg is 62.4%. Moreover, the IC50 with Plasmodium falciparum [5] turned out to be 1.6 nM; in data set [10], 38.8 µM; in the data set on HL-60 [11], 2 µM. For the same compound, the inhibition in vivo at 1 mg/kg with Plasmodium berghei [6] came to 38.5%. In addition, in the data set on Plasmodium berghei [7], the ED50 was found to be 1.6 mg/kg. In addition, the inhibition in vivo at 10 mg/kg in the data set with Plasmodium berghei [8] amounted to 95.2%.
In the case of `CC1(CCC(=O)Nc2cccc(N)c2)OOC2(CCCCC2)OO1`, the figures for the IC50 (in the data set on Plasmodium falciparum [5]; in [10]; in the data set on HL-60 [11]) were 102 nM, 75.8 µM and 31.2 µM, respectively.
As to `O=C(CC1CCC2(CC1)OOC1(OO2)C2CC3CC(C2)CC1C3)NCCNC(=O)CC1CCC2(CC1)OOC1(OO2)C2CC3CC(C2)CC1C3` (stereo unspecified), the IC50 came to 62.7 µM with KB, 8.9 nM in the data set with Plasmodium falciparum [4] and 16.9 nM in the data set on Plasmodium falciparum [5]. The selectivity ratio in [3] was found to be 7040.
